The record followed here is patent US12522587B2, “Cancer treatments targeting cancer stem cells” (Remedy Plan, Inc., priority 2018, dated 2026).

As a reminder, the IC50 is the concentration that gives 50% inhibition. Low readings indicate greater potency in that assay, high ones weaker potency in that assay. For orientation: half-life means the time in which the quantity being followed falls by half. Read a low half-life as rapid decline.

The test system of one series is AGS cells. As to the kind of experiment: Kinetic cell viability with AGS cells (RealTime Glo MT). Format: cell-based, human. The procedure:
Approximately 50,000 AGS cells were seeded per well of a 96-well plate in media containing NanoLuc Luciferase and MT Cell Viability Substrate provided on the RealTime Glo MT Cell Viability Assay Kit from PROMEGA. Four hours after plating, cells were treated with DMSO alone (no drug treatment) or decreasing concentrations of a compound of the disclosure to achieve final concentrations of 20, 10, 5, and 2.5 μM. Luminescence Units (RLU) were measured every 16-20 hours using a SynergyHTX plate reader with a 30 msec integration (see FIG. 1).
Approximately 50,000 AGS cells were seeded per well of a 96-well plate in media containing NanoLuc Luciferase and MT Cell Viability Substrate provided on the RealTime Glo MT Cell Viability Assay Kit from PROMEGA. Four hours after plating, cells were treated with DMSO alone (no drug treatment) or decreasing concentrations of compound I-1 to achieve final concentrations of 20, 10, 5, and 2.5 μM. Luminescence Units (RLU) were measured every 16-20 hrs using a SynergyHTX plate reader with a 30 msec integration.
AGS gastric cancer cells were treated with either DMSO alone (no drug treatment) or various concentrations of compound I-1 (including 2.5 µM, 5 µM, 10 µM, and 20 µM) for 4 days. Cell health and replication were measured using REALTIME-GLO MT Cell Viability Assay, which provided a luminescence readout as a measurement of cell number and health.

In another series the test system is RL. As to the kind of experiment: Growth inhibition of cancer cell lines. It counts as cell-based. Conditions: Homo sapiens, non-Hodgkin's lymphoma, 50% inhibition of growth. From the text:
(§1) We tested the ability of compound I-1 to inhibit the growth of 12 additional cell lines, derived from a variety of different types of human cancer.

For a further series, the system named is GIST T1. As to the kind of experiment: Growth inhibition of cancer cell lines. It counts as cell-based. Conditions: Homo sapiens, GISTT1; GIST T1, gastrointestinal stromal tumor; 50% inhibition of growth.
Excerpt: as §1

The test system of another series is MiaPaca-2. As to the kind of experiment: Growth inhibition of cancer cell lines. Conditions: Homo sapiens, MIA PaCa-2; MiaPaca-2, pancreatic carcinoma; 50% inhibition of growth. It counts as cell-based.
Excerpt: as §1

A further series deals with PC-3. As to the kind of experiment: Growth inhibition of cancer cell lines. Format: cell-based. Conditions: Homo sapiens; PC-3, prostate adenocarcinoma; 50% inhibition of growth.
Excerpt: as §1

A short description of series [1]: Pharmacokinetic profile after oral gavage in mice. Conditions: male, CD1, mouse, single PO 100 mg/kg, plasma over 24 hours. Format: in vivo. The procedure:
The pharmacokinetic profile of compound I-1 was determined after oral gavage of 100 mg/kg in male CD1 mice (n=3), using freshly prepared formulations. Approximately 0.025 mL of blood were collected from the dorsal metatarsal vein at 15 min, 30 min, and 1, 2, 4, 6, 8, and 24 hr post dosing. Plasma concentrations of the drug were analyzed by LC/MS/MS method.
Following a single PO (oral) injection in mice at 100 mg/kg, the concentration of compound I-1 was measured in the plasma over 24 hours. The half life was approximately 6 hours.

In series [2] the test system is Primary CD-1 mouse hepatocytes. As to the kind of experiment: Hepatocyte toxicity assay (CellTiter Glo). Format: cell-based. The note with it: 10 μM daily for 4 days, FIG. 4. As for the experimental part:
Fresh Primary CD-1 mouse hepatocytes were obtained from XenoTech in 96-well plates the day after perfusion. After 24 hrs of recovery at 37° C. using OptiCulture Hepatocyte Media, medium was replaced containing either DMSO alone (no drug treatment) or 10 μM of compound I-1 daily for 4 days. Cell viability was measured using CellTiter Glo 2.0 Kit from PROMEGA, following manufacturer instructions. Luminescence was measured using a SynergyHTX plate reader with a 1 sec integration.
Normal, healthy mouse hepatocytes were treated with DMSO alone (no drug treatment) or 10 µM of compound I-1 for 4 days. Cell health was measured using CELLTITER GLO reagent, which provided a luminescence readout as a measurement of total ATP concentration.

The next series relates to nanog. As to the kind of experiment: RT-qPCR of nanog RNA in AGS cells. Format: cell-based, human. Conditions: 10 μM, 4 days, FIG. 3. The procedure:
Approximately 2.5×10^5 AGS cells were treated for 4 days with DMSO alone (no drug treatment) or 10 μM compound I-1 in DMSO. Cells were lysed and RNA was extracted using Zymo's Quick RNA-Microprep following manufacturer instructions. 100 ng of RNA were reverse transcribed using MuLV reverse transcriptase (New England Biolabs, USA). qPCR was performed using 2 ul of cDNA and Luna Universal qPCR Master Mix from NEB in a Stratagene Mx3005P.
AGS gastric cancer cells were treated with either DMSO alone (no drug treatment) or 10 µM of compound I-1 for 4 days. RNA was isolated and nanog RNA levels were measured by RT-qPCR.
(In general: In qPCR the cycle at which signal appears reflects the starting amount.)

The subject of the next series is Thp1. As to the kind of experiment: Growth inhibition of additional cancer cell lines. Format: cell-based. Conditions: Homo sapiens, THP-1; Thp1, Heme (acute monocytic leukemia); 50% inhibition of growth. The source says:
(§2) We tested the ability of compound I-1 to inhibit the growth of 11 additional cell lines, derived from a variety of different types of human cancer.

Another series concerns RL95-2. As to the kind of experiment: Growth inhibition of additional cancer cell lines. It counts as cell-based. Conditions: Homo sapiens; RL95-2, Uterus/endometrium; 50% inhibition of growth.
Excerpt: as §2

A further series concerns MM.1R. As to the kind of experiment: Growth inhibition of additional cancer cell lines. Format: cell-based. Conditions: Homo sapiens, Hematopoietic-B-cell myeloma, 50% inhibition of growth.
Excerpt: as §2

A further series concerns SR. As to the kind of experiment: Growth inhibition of additional cancer cell lines. Format: cell-based. The note with it: Homo sapiens, Heme (large cell immunoblastic lymphoma-unknown B or T cell origin), 50% inhibition of growth.
Excerpt: as §2

The next series concerns NCI-H520. As to the kind of experiment: Growth inhibition of additional cancer cell lines. The note with it: Homo sapiens; NCI-H520, NSCLC; 50% inhibition of growth. Format: cell-based.
Excerpt: as §2

A further series concerns NALM-6. As to the kind of experiment: Growth inhibition of additional cancer cell lines. It counts as cell-based. The note with it: Homo sapiens; NALM-6, Heme (B-cell precursor leukemia, ALL); 50% inhibition of growth.
Excerpt: as §2

The next series relates to HepG2. As to the kind of experiment: Growth inhibition of additional cancer cell lines. It counts as cell-based. The note with it: Homo sapiens; HepG2, Liver; 50% inhibition of growth.
Excerpt: as §2

In a further series the test system is SW620. As to the kind of experiment: Growth inhibition of additional cancer cell lines. Format: cell-based. Conditions: Homo sapiens, SW-620; SW620, Colon; 50% inhibition of growth.
Excerpt: as §2

The subject of a further series is Ramos (RA 1). As to the kind of experiment: Growth inhibition of additional cancer cell lines. Format: cell-based. Conditions: Homo sapiens, Hematopoietic-Burkitt's B-cell lymphoma, 50% inhibition of growth.
Excerpt: as §2

For a further series, the system named is Raji. As to the kind of experiment: Growth inhibition of additional cancer cell lines. It counts as cell-based. The note with it: Homo sapiens, Heme (Burkitt's lymphoma), 50% inhibition of growth.
Excerpt: as §2

Another series relates to SU-DHL-10. As to the kind of experiment: Growth inhibition of additional cancer cell lines. Format: cell-based. The note with it: Homo sapiens, SU-DHL10; SU-DHL-10, Hematopoietic-large B-cell lymphoma; 50% inhibition of growth.
Excerpt: as §2

Molecules are shown by their SMILES.

`CCC(=O)N1CCc2cc(-c3ccc(C(=O)NCc4cccnc4)cc3)ccc21` [Compound I-1]: the “growth of gastric cancer cells” value with AGS cells (AGS cells, 2.5-20 μM, 4 days, FIG. 5) was “inhibited growth”. In the series on AGS cells (AGS cells, 20, 10, 5 and 2.5 μM, FIG. 1), the “populations of embryonic-like gastric cell populations in gastric cancer” value is “depleted”. In addition, the IC50 in the series with RL is 0.13 µM; in the series with GIST T1, 0.98 µM; in the series with MiaPaca-2, 3.38 µM; in the series with PC-3, 5.52 µM; in the series with Thp1 it was 5.17 µM; in the series on RL95-2, 2.5 µM. For the same compound, the IC50 came out at 5.44 µM in the series on MM.1R; 0.489 µM with SR; 3.66 µM with NCI-H520; 0.675 µM in the series on NALM-6; 4.02 µM in the series with HepG2; 2.79 µM in the series on SW620. The IC50 with Ramos (RA 1) came to 3.41 µM; in the series on Raji, 2.52 µM; in the series with SU-DHL-10, 2.61 µM. For the same compound, the half-life in [1] was ~6 h. In [2], the “toxicity to healthy hepatocytes” value was “no toxicity”. Further, the “nanog expression in gastric cancer cells” value in the series on nanog is “decreased”.
